In US7071293B1, “Alpha helical peptides with broad spectrum antimicrobial activity that are insensitive to salt” (priority 1999, dated 2006):
Converted amounts (≈) assume the structure as drawn. Like-named read-outs stand apart in the source and are kept apart here. Ends that are not written are not given here.

Columns and labels:
P. aeruginosa MR 3007 = conditions: MR 3007, pH 7.4
S. aureus 930918-3 = conditions: 930918-3, pH 7.4
MRSA ATCC 33591 = conditions: ATCC 33591, pH 7.4
E. coli ML-35p = conditions: Table 13; for MIC E. coli [NaCl] High: high salt underlay (10 mM sodium phosphate buffer +100 mM NaCl, pH 7.4); for MIC E. coli [NaCl] Low: low salt underlay (10 mM sodium phosphate buffer, pH 7.4)
P. aeruginosa PAO1 [1] = conditions: avg ± sem
P. aeruginosa PAO1 [2] = assay: Relative time for killing (luminescence measured at intervals); assay type: cell-based; conditions: peptide at ten times its EC50 (SMAP29X-18D 15.7 X, SMAP29X-14A 17.4 X), 25 mM ionic strength
E. coli DH5α = conditions: for EC50: DH5α; for EC50 E. coli DH5α: ionic strength 25 mM, avg ± sem
[3] = test system: vancomycin and methicillin-resistant Gram-positives
Mycoplasma hominis = conditions: cited from earlier work
Mycoplasma pneumoniae = conditions: cited from earlier work
Staphylococcus aureus = conditions: Staphylococcus aureus, cited from earlier work
[4] = E.f 142-1498-1 (Enterococcus fecaelis), Van A (vancomycin-resistant)
[5] = E.f 142-6873-3 (Enterococcus fecaelis), Van B (vancomycin-resistant)

Compound | MIC P. aeruginosa [NaCl] High (P. aeruginosa MR 3007) [µg/mL] | MIC P. aeruginosa [NaCl] Low (P. aeruginosa MR 3007) [µg/mL] | MIC S. aureus [NaCl] High (S. aureus 930918-3) [µg/mL] | MIC S. aureus [NaCl] Low (S. aureus 930918-3) [µg/mL] | MIC MRSA [NaCl] High (MRSA ATCC 33591) [µg/mL] | MIC MRSA [NaCl] Low (MRSA ATCC 33591) [µg/mL] | MIC E. coli [NaCl] High (E. coli ML-35p) [µg/mL] | MIC E. coli [NaCl] Low (E. coli ML-35p) [µg/mL] | EC50 P. aeruginosa PAO1 (P. aeruginosa PAO1 [1]; ionic strength 25 mM) [µg/mL] | EC50 P. aeruginosa PAO1 (P. aeruginosa PAO1 [1]; ionic strength 175 mM) [µg/mL] | Half-time of Killing (min. avg. ± sem) (P. aeruginosa PAO1 [2]) [min] | EC50 (E. coli DH5α) [nM] | EC50 E. coli DH5α (E. coli DH5α) [µg/mL] | also measured
KRLRKFRNKIKEKLKKIG [CAP18-18] | 3.2 | 2.1 | 29.0 | 9.7 | >250 | 14.9 | 1.5 | 2.8 | 1.05 ± 0.37 | 1.59 ± 0.29 | 19.5 ± 8.2 | 200 ± 30 | 0.47 ± 0.06 | 
GLRKRLRKFRNKIKEKLKKIG [CAP18-21a] | 0.9 | 0.7 | 2.2 | 1.8 | >250 | 19.4 | 0.4 | 2.3 | 0.58 ± 0.09 | 0.54 ± 0.10 | 9.2 ± 3.4 | 190 ± 10 | 0.48 ± 0.03 | 
KNLRRIIRKIIHIIKKYG [SMAP29X-18D] | 0.5 | 1.1 | 1.4 | 2.0 | 0.8 | 8.7 | 0.5 | 0.8 | 0.29 ± 0.01 | 0.58 ± 0.05 | 2.9 |  |  | MIC [3, 4]: 32 µg/mL; MIC [3, 5]: 64 µg/mL
GLRKRLRKFRNKIKEKLKKIGQKIQGLLPKLAPRTDY [CAP 18] | 1.6 | 0.2 | 2.8 | 1.8 | 6.1 | 8.2 | 0.4 | 0.2 | 0.98 ± 0.24 | 0.50 ± 0.10 | 4.0 ± 1.4 | 150 ± 20 | 0.69 ± 0.08 | 
CCC[C@@H]1C[C@@H](C(=O)N[C@@H]([C@H]2O[C@H](SC)[C@H](O)[C@@H](O)[C@H]2O)[C@@H](C)O)N(C)C1 [LINCOMYCIN, lincomycin] |  |  |  |  |  |  |  |  |  |  |  |  |  | Range (Mycoplasma hominis; MIC range): 0.5–16; MIC50 (Mycoplasma hominis): 2 µg/mL (≈ 4.92 µM); MIC90 (Mycoplasma hominis): 4 µg/mL (≈ 9.84 µM); Range (Mycoplasma pneumoniae; MIC range): 2–32; MIC50 (Mycoplasma pneumoniae): 8 µg/mL (≈ 19.7 µM); MIC90 (Mycoplasma pneumoniae): 32 µg/mL (≈ 78.7 µM); Range (Staphylococcus aureus; MIC range): 0.5–512; MIC50 (Staphylococcus aureus): 1 µg/mL (≈ 2.46 µM); MIC90 (Staphylococcus aureus): 1 µg/mL (≈ 2.46 µM)
RKRLRKFRNKIKEKLKKIGQKI [CAP18-22] | 7.6 | 0.7 | >79.1 | 7.9 | >79.1 | 8.1 | 1.7 | 0.1 | 1.38 ± 0.49 | 0.88 ± 0.12 | 9.8 ± 2.5 | 520 ± 160 | 1.47 ± 0.44 | 
LRRIIRKIIHIIKK-NH2 [SMAP29X-14A] | 2.7 | 2.0 | 1.9 | 1.1 | >79.1 | 7.6 | 0.9 | 2.9 | 0.23 ± 0.03 | 1.59 ± 0.22 | 20.9 |  |  | MIC [3, 4]: >64 µg/mL; MIC [3, 5]: >64 µg/mL
LRKFRNKIKEKLKKIGQKI [CAP18-19] | 26.7 | 1.0 | >79.1 | 6.0 | >79.1 | 4.5 | 18.2 | 0.4 | 1.65 ± 0.27 | 3.06 ± 0.36 | 8.0 ± 1.6 | 960 ± 130 | 2.27 ± 0.30 | 
